In US20040142994A1, “Azolylcarbynol derivatives of aryl (or heteroaryl) for the treatment of respiratory diseases” (priority 2001, published 2004):

What was measured:
[1] = tested on: cough induced by citric acid aerosol; test: Antitussive activity against cough induced by citric acid aerosol in guinea-pig; type: in vivo; conditions: ip; for N° of Coughs ± SEM: 30 min before citric acid aerosol (7.5% p/v), 12.5 min observation, N=10; for SD-50: antitussive activity, citric acid aerosol
Excerpt: (§1) To do this, the antitussive activity has been studied in guinea-pigs, simultaneously studying the possible sedative effects at the doses used in this study. The method used was the one described by Boura [Boura A L A, Green A F, Saunders I A (1970), An antitussive test using guinea-pigs. Br. J. Pharmacol., 39, 225P], con modificaciones más recientes [Adcock J J, Schneider C, Smith T W (1988), Effects of codeine, morphine a novel opioid pentapeptide BW443C, on cough, nociception and ventilation in the unanaesthetized guinea-pig. Br. J. Pharmacol., 93:93-100; Clay T P, Thompson M A (1985), Irritant induced cough as a model of intrapulmonary airway reactivity. Lung, 163:183-191; Forsberg K, Karlsson J-A, Theodorsson E; Lundberg J M; Persson C G A (1988), Cough and bronchoconstriction mediated by capsaicin-sensitive sensory neurons in the guinea-pig. Pulm Pharmacol, 1: 33-39; Gallico L, Borghi A, Dalla Rosa C, Ceserani R, Tognella S (1994), Moguisteine: a novel peripheral non-narcotic antitussive drug. Br. J. Pharmacol,112:795-800].
The guinea-pigs (250-400 g) were deprived of water and food 30 minutes before any intervention. The guinea-pigs, neither ligated nor anaesthetised, were individually placed in a perspex box (20×12×14 cm.) and left for an accommodation period of 15 minutes. After this period, the animals were exposed to an aerosol of an aqueous solution of citric acid (7.5% p/v, 0.39M). This concentration of citric acid is the minimum concentration capable of producing the maximum number of coughs during the observation period (Forsberg et al., 1988). The aerosol was generated for 2.5 minutes using an ultrasound nebulizer (De Vilbiss, Ultraneb 99; mean particle size 0.9 μm, with a flow of 0.5 ml/min.). The observation period with the animals exposed to the nebulized citric acid in the box was 12.5 minutes (2.5 minutes of aerosol production, followed by an additional 10 minutes). During this period, the animals were observed continuously, the number of coughs was counted and the baseline value was taken as control. Only the guinea-pigs that coughed between 15 and 30 times during the observation period were selected for the study. On the day after the selection the animals were randomly treated with the vehicle or with the study product thirty minutes before being exposed again to the citric acid aerosol. The antitussive activity was assessed for each guinea-pig as the reduction in the number of coughs compared to their previously recorded values. On the other hand, the animals were observed from the time of administration of the product until the end of the experiment for possible sedative effects.

[2] = Observation for possible sedative effects in the treated guinea-pigs; type: in vivo, guinea-pig; conditions: ip
Excerpt: as §1, with “Br. J. Pharmacol,112:795-800].” left out
The guinea-pigs (250-400 g) were deprived of water and food 30 minutes before any intervention. […] During this period, the animals were observed continuously, the number of coughs was counted and the baseline value was taken as control. […] The antitussive activity was assessed for each guinea-pig as the reduction in the number of coughs compared to their previously recorded values. […]

For `CN(C)CCOC(c1ccccc1)c1ccnn1C.O=C(O)CC(O)(CC(=O)O)C(=O)O` (racemic) [Product, (±)-5-{α-[2-(dimethylamine)ethoxy]benzyl}-1-methyl-1H pirazole citrate], the “N° of Coughs ± SEM” value ([1]; 10 mg/kg) was 8.7 ± 0.7, the “N° of Coughs ± SEM” value ([1]; 40 mg/kg) was 4.3 ± 0.5 and the “N° of Coughs ± SEM” value ([1]; 100 mg/kg) was 2.8 ± 0.4. For the same compound, the “antitussive activity (in words)” value ([1]; 10, 40 and 100 mg/kg) was “good antitussive activity which is perfectly dose-related”, the inhibition at 10 mg/kg ([1]; Cavia porcellus, 10 mg/kg, inhibition of coughs) was 37% and the inhibition at 40 mg/kg ([1]; Cavia porcellus, 40 mg/kg, inhibition of coughs) was 71%. The inhibition at 100 mg/kg ([1]; Cavia porcellus, 100 mg/kg, inhibition of coughs) was 80%, the SD-50 [1] was 17.6 mg/kg, ip and the SD-50 ([1]; listed as (±)-5-{α-[2(dimethylamine) ethoxy]benzyl}-1-methyl-1H-pirazole citrate) was 17.6 mg/kg. The sedative effect ([2]; 10, 40 and 100 mg/kg) was “does not produce any sedative effect” and the sedative effect ([2]; maximum dose used 100 mg/kg) was “no sedative effect”.
